Experimental data reported in patent US20250002854A1, “METHODS OF GENERATING POPULATIONS OF TUMOUR-INFILTRATING T CELLS” (LYTIX BIOPHARMA AS, priority 2016, published 2025).
Square brackets hold non-standard residues; d marks the D form. Ends that are not written are not given here. Dip = N[C@H](C(=O)O)C(c1ccccc1)c1ccccc1

How the values were obtained:
human A547 cells = assay: TEM of A547 cells, mitochondrial membrane; type: cell-based; conditions: 10 μg/ml, 60 minutes
A375 cells [1] = assay: Release of HMGB1 (Western blot); type: cell-based, human; conditions: 35 μM, up to 60 min
Protocol: A375 cells were seeded with 3×10^5 cells/well in 6-well plates in a complete media, and allowed to adhere overnight. Cells were treated with LTX-315 or LTX-328 at 35 μM, and incubated at 37° C. and 5% CO2 for different time points (5, 10, 15, 30, 60 min), and negative controls were serum-free RPMI-1650. Supernatants (S) were collected and centrifuged at 1,400 g for five minutes, and cell lysates (L) were harvested after washing with PBS twice and then subsequently lysed using a 4×Sample buffer (Invitrogen, number), 0.1 M DTT (Sigma number) and water. Supernatants were concentrated using Amicon Ultra 50 K centrifugal filters (Millipore UFC505024), and the cell lysate was sonicated. Both supernatants and lysate were boiled and resolved in a 10% sodium dodecyl sulfate polyacrylamide gel electrophoresis (SDS-PAGE), and then electro transferred to a polyvindiline difluoride (PVDF) membrane (Millipore). The membrane was blocked in 5% milk and incubated with the HMGB1 antibody (rabbit, polyclonal, abcam ab 18256); the membrane was then rinsed several times with TBST, incubated with a horseradish peroxidase (HRP)-conjugated secondary antibody (abcam ab6721), rinsed again with TBST and then developed using WB Luminol Reagent (Santa Cruz Biotechnology, Heidelberg, Germany).

A375 cells [2] = assay: Confocal imaging with Mitotracker (mitochondrial membrane potential); type: cell-based, human; conditions: short time after peptide treatment; data not shown
Protocol: Fixed cells, mitotracker—Cells were seeded as for live cell imaging, and treated with Mitotracker CMH2XROS (Invitrogen) at […] for 15 minutes prior to peptide treatment. Cells were treated with 17 μM LTX-315, with negative control serum-free RPMI only. After 60 min of incubation, cells were analyzed using a Zeiss microscope.

Murine B16 melanoma = assay: immunoSEQ TCR repertoire characterisation after intratumoural LTX-315; type: in vivo, mice
Protocol: This study was carried out using an “immunoSEQ™” T cell receptor (TCR) repertoire characterisation platform by Adaptive Biotechnologies™. The platform combines novel multiplex PCR1 with highly optimized primer sets and deep sequencing techniques that exclusively target TCR genes. The immunoSEQ platform enables researchers to analyse the adaptive immune system with exceptional depth and specificity.
Murine B16 melanoma cells were harvested, washed and injected intradermally in ten mice. 8 days after tumour injection, peptide treatment was initiated using single intratumoural injections of LTX-315 (1.0 mg LTX-315/50 μl saline) once or twice in five mice. Vehicle control of saline only (0.9% NaCl in sterile H2O) was administered to the other five mice. Animals were then euthanized on day 15.
Tumour tissue (10 mg) and whole blood (150-200 μl) was taken from each mouse for TCR repertoire characterisation analysis. Blood samples provide information regarding the immune repertoire in the periphery, whilst the tumour samples provide a focused view of the repertoire.
Sequence analysis was carried out by Adaptive Biotechnologies™ at a survey-level resolution with respect to the tissue samples and at a deep-level resolution with respect to the blood samples.
Clonality quantitates the extent of mono-or oligoclonal expansion by measuring the shape of the clone frequency distribution. Values range from 0 to 1, where values approaching 1 indicate a nearly monoclonal population. FIG. 15 provides example distribution curves of populations with a clonality of 0.05 (A) and of 0.32 (B).

B16F1 cells = assay: Secondary tumour challenge of animals cured by LTX-315; type: in vivo, C57BL/6 mice
Protocol: Tumour cells were harvested, washed in RPMI-1640 and injected intradermally (i.d.) into the right side of the abdomen in C57BL/6 mice (5×10^4 B16F1 cells per mouse/50 μl RPMI-1640). Palpable tumours (20-30 mm^2) were injected i.t. with single doses of LTX-315 or LTX-328 dissolved in saline (1.0 mg peptide/50 μl saline) once a day for 3 consecutive days, and the vehicle control was saline only (0.9% NaCl in sterile H2O). Tumour size was measured using an electronic caliper and expressed as the area of an ellipse [(maximum dimension/2)×(minimum dimension/2)×π]. Animals were then euthanized when the product of the perpendicular tumour dimensions reached 130 mm^2 or when tumour ulceration developed. […] Animals surviving the i.d. tumour re-challenge were later given a second tumour rechallenge intravenously (i.v.) (2×10^5 cells) through the tail vein. Lungs were harvested on day 19 after the i.v. re-challenge. All mice were monitored for tumour size and survival.

MCA205 sarcomas = assay: T-cell depletion, tumour growth of MCA205 sarcomas; type: in vivo, C57BL/6 mice; conditions: three intratumoural daily injections of 300 μg
Protocol: Mice were subcutaneously injected into the right flank with 1×10^6 MCA205 cells. Tumour cell lines were inoculated into C57BL/6 mice. Tumour surfaces (longest dimension×perpendicular dimension) were routinely monitored by caliper. When tumours reached a size of 20-25 mm^2 (day 0), mice were administered intratumourally with three consecutive daily injections of 300 μg LTX-315. In T-cell depletion experiments (FIG. 24), anti-CD4 and anti-CD8 monoclonal antibodies (mAbs) (GK1.5 and 53-6.72, respectively; 200 μg per mouse) or their isotype controls (LTF-2 and 2A3, respectively) were injected intraperitoneally 3 and 4 days before the first LTX-315 injection and continued every other 7 days. All mAbs for in vivo use were obtained from BioXcell (West Lebanon, NH, USA), using the recommended isotype control mAbs.

rat sarcoma model = assay: Rat sarcoma model with three lesions, tumour growth by live imaging; type: in vivo; conditions: LTX-315 injected into one subcutaneous lesion

## K-K-W-W-K-K-W-Dip-K-NH2 (KKWWKKW[Dip]K-NH2) [LTX-315]
Human A547 cells
  effect on mitochondrial membrane: disintegration of the mitochondrial membrane
A375 cells [1]
  HMGB1 translocation from cell lysate to supernatant: gradual translocation from the cell lysate to the supernatant detected
A375 cells [2]
  Mitotracker mitochondrial signal: loss of mitochondrial signal
Murine B16 melanoma; Blood
  TCR Template Molecules: 135,283
  TCRs (T cell estimate) per nucleated cell (%): 17.4%
  Unique TCRs: 116,120
Murine B16 melanoma; Tissue (tumour)
  TCR Template Molecules: 12,331
B16F1 cells; i.d. re-challenge
  animals with no tumour take: 60%
B16F1 cells; i.d. re-challenge with B16F1 cells 4-5 weeks after CR
  animals with tumour growth absent: 15 out of the 25
B16F1 cells; i.v. re-challenge, histology
  CD3+ T cell infiltration of lung tumour foci: significantly more infiltrated by CD3+ T cells
B16F1 cells; i.v. re-challenge, n=7
  mean # tumour foci (lung): 15.86
MCA205 sarcomas
  antitumor effects in presence of antibodies depleting CD4+ and CD8+ T cells: completely abrogated the antitumor effects
Rat sarcoma model
  effect on lesions (intraperitoneal and two subcutaneous tumours): eradicated all three lesions
